Results: patent publication US20260034094A1, “COMPOSITIONS AND METHODS FOR INDUCING FERROPTOSIS” (Kojin Therapeutics, Inc., priority 2022, published 2026)
Where two headings read alike, the source gives them in different places.

System: RKN cells
Assay: RKN cell profiling assay (cell viability, CellTiter-Glo)
Type: cell-based
Conditions: read-out: Cell Killing EC50
Experimental: RKN cells were suspended in assay medium (F-12 medium supplemented with 10% FBS and penicillin/streptomycin) and seeded at 1,000 cells per well (30 μL total volume) in opaque white 384-well plates (Corning). Cells were allowed to adhere for 24 h at 37° C. (95% humidity, 5% CO2) and then exposed to compounds disclosed herein for 72 h, or in the present case, 96 h. DMSO stock solutions of compounds were added to cells using a D300e Digital Dispenser (Tecan). The final DMSO concentration in each well was normalized to 0.5% (v/v) after compound treatment. Cell viability was measured using CellTiter-Glo (Promega). After incubation for 15 min at room temperature, luminescence was measured using a PHERAstar FSX microplate reader (BMG Labtech). Ferroptosis rescue experiments were performed as described previously using cells treated with ferrostatin-1 (fer-1, 1.5 μM) when seeding assay plates. Dose-response data were analyzed to determine EC50 values with GraphPad Prism 9 software using a four-parameter logistic equation or CDD Vault (Collaborative Drug Discovery) using the Levenberg-Marquardt algorithm.

Structure (SMILES)	EC50 (cell viability) [mM]	EC50 (96 h, 96 h exposure) [mM]
N=S(=O)(CCC(c1ccc(-c2ccccc2Cl)cc1)C(F)(F)F)CC[C@H](N)C(=O)O (single isomer, unassigned) [Compound 219]	≥ 1	
N=[S@](=O)(CC[C@H](N)C(=O)O)CCC(O)(c1ccccc1)C(F)(F)F (single isomer, unassigned) [Compound 346]	≥ 1	
N=S(=O)(CCc1cccc(Cl)c1F)CC[C@H](N)C(=O)O (stereo partly shown) [Compound 28]		≥ 1
CC(C)(C)CCS(=N)(=O)CC[C@H](N)C(=O)OC(C)(C)C (stereo partly shown) [Compound 96]		≥ 1
CCCCS(=N)(=O)CC[C@H](N)C(=O)NC (stereo partly shown) [Compound 107]		≥ 1
CC(C)(C)CCS(=N)(=O)CC[C@H](N)C(=O)Nc1nccs1 (stereo partly shown) [Compound 121]		≥ 1
N[C@@H](CC[S@@](=O)(CCCC(F)(F)F)=NP(=O)(O)O)C(=O)O [Compound 138, (S)-2-amino-4-((S)-4,4,4-trifluoro-N-phosphonobutylsulfonimidoyl)butanoic acid]		< 1
CCCCS(=N)(=O)CC[C@H](N)c1nnn[nH]1 (stereo partly drawn) [Compound 200, (1S)-3-(butylsulfonimidoyl)-1-(1H-tetrazol-5-yl)propan-1-amine]		≥ 1
N=S(=O)(CCC(c1ccc(-c2ccccc2F)cc1)C(F)(F)F)CC[C@H](N)C(=O)O (stereo partly shown) [Compound 217]	< 1	
N=S(=O)(CCC(c1ccc(-c2ccccc2Cl)cc1)C(F)(F)F)CC[C@H](N)C(=O)O (stereo partly shown) [Compound 220]	< 1	
N=S(=O)(CCC(c1ccc(-c2ccccc2Cl)cc1)C(F)(F)F)CC[C@H](N)C(=O)O (stereo partly shown) [Compound 221]	< 1	
N=S(=O)(CCC(c1ccc(C2CC2)cc1)C(F)(F)F)CC[C@H](N)C(=O)O (stereo partly shown) [Compound 225]	< 1	
N=S(=O)(CCC(c1ccc(-c2ccc(Br)cc2)cc1)C(F)(F)F)CC[C@H](N)C(=O)O (stereo partly shown) [Compound 226]	< 1	
N=S(=O)(CCC(c1ccc(-c2cn[nH]c2)cc1)C(F)(F)F)CC[C@H](N)C(=O)O (stereo partly shown) [Compound 227]	≥ 1	
N=S(=O)(CCC(c1ccc(-c2cc[nH]n2)cc1)C(F)(F)F)CC[C@H](N)C(=O)O (stereo partly shown) [Compound 228]	≥ 1	
N=S(=O)(CCC(c1ccc(-c2cccc(C(N)=O)c2)cc1)C(F)(F)F)CC[C@H](N)C(=O)O (stereo partly shown) [Compound 229]	≥ 1	
CNC(=O)c1cccc(-c2ccc(C(CCS(=N)(=O)CC[C@H](N)C(=O)O)C(F)(F)F)cc2)c1 (stereo partly shown) [Compound 230]	≥ 1	
N=S(=O)(CCC(c1ccc(-c2ccc(C(F)F)cc2)cc1)C(F)(F)F)CC[C@H](N)C(=O)O (stereo partly shown) [Compound 231]	< 1	
N=S(=O)(CCC(c1ccc(-c2ccccc2O)cc1)C(F)(F)F)CC[C@H](N)C(=O)O (stereo partly shown) [Compound 235]	< 1	
CC(C)(O)c1cccc(-c2ccc(C(CCS(=N)(=O)CC[C@H](N)C(=O)O)C(F)(F)F)cc2)c1 (stereo partly shown) [Compound 241]	≥ 1	
N=S(=O)(CCC(c1ccc(-c2cccnc2)cc1)C(F)(F)F)CC[C@H](N)C(=O)O (stereo partly shown) [Compound 243]	≥ 1	
N=S(=O)(CCC(c1ccc(-c2ccc(C(N)=O)nc2)cc1)C(F)(F)F)CC[C@H](N)C(=O)O (stereo partly shown) [Compound 245]	≥ 1	
Cc1ccc(-c2ccc(C(CCS(=N)(=O)CC[C@H](N)C(=O)O)C(F)(F)F)cc2)cn1 (stereo partly shown) [Compound 246]	≥ 1	
Cc1nc(Cl)ccc1-c1ccc(C(CCS(=N)(=O)CC[C@H](N)C(=O)O)C(F)(F)F)cc1 (stereo partly shown) [Compound 248]	< 1	
CN1CCN(c2ccc(-c3ccc(C(CCS(=N)(=O)CC[C@H](N)C(=O)O)C(F)(F)F)cc3)cn2)CC1 (stereo partly shown) [Compound 249]	≥ 1	
N=S(=O)(CCC(c1ccc(-c2cnc(N)nc2)cc1)C(F)(F)F)CC[C@H](N)C(=O)O (stereo partly shown) [Compound 251]	≥ 1	
N=S(=O)(CCC(c1ccc(-c2cnc(C3CC3)nc2)cc1)C(F)(F)F)CC[C@H](N)C(=O)O (stereo partly shown) [Compound 252]	≥ 1	
N=S(=O)(CCC(c1ccc(-c2cnc3[nH]ccc3c2)cc1)C(F)(F)F)CC[C@H](N)C(=O)O (stereo partly shown) [Compound 253]	< 1	
